pIC50: −log10 of the molar value.
The compounds below were run against T1, human renal renin (Homo sapiens, UniProt P00797) (assay: Inhibition of human renal renin in vitro (angiotensin I formed, measured by radioimmunoassay)). Details: human renal renin with renin substrate (human angiotensinogen), 37° C., pH 6.0.
T1 construct: human renal renin, free from acid proteolytic activity; from tissue; host or cells: human kidney (from the word 'renal')
T1 sequence (P00797 67-406): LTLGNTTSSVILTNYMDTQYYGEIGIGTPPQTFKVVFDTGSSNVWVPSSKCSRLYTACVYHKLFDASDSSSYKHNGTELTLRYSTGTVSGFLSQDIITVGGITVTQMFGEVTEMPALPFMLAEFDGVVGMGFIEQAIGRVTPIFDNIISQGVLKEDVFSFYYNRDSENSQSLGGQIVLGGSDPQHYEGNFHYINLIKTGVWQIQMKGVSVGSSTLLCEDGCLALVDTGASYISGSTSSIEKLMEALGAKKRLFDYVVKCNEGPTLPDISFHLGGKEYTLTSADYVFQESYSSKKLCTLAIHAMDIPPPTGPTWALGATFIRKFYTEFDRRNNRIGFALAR
Assay type: biochemical
Description: At the end of the incubation, the amount of angiotensin I formed is measured by radioimmunoassay and the molar concentration required to cause 50% inhibition, expressed as the IC50 is calculated.

In order of rising pIC50:
1. CC[C@H]1CO[C@@H]1[C@H](O)[C@H](CC1CCCCC1)NC(=O)C(C)NC(=O)[C@H](Cc1ccccc1)Cn1ccnc1 (stereo partly drawn) [Example 192, (2R)-2-Benzyl-3-(imidazol-1-yl)propionyl-alanine Acid of (1R,2S,2'S,3'S)-2-Amino-3-cyclohexyl-1-[3'-(ethyl)oxetan-2'-yl]-1-(hydroxy)propane]  8.47
2. CCCC[C@H](NC(=O)C(Cc1ccccc1)Cc1ccccc1)C(=O)N[C@@H](CC1CCCCC1)[C@@H](O)[C@H]1OC[C@@H]1CC [Example 188, Dibenzylacetyl-(nor)Leucine Amide of (1R,2S,2'S,3'S)-2-Amino-3-cyclohexyl-1-[3'-(ethyl)oxetan-2'-yl]-1-(hydroxy)propane]  9.17
3. CC[C@H]1CO[C@@H]1[C@H](O)[C@H](CC1CCCCC1)NC(=O)C(C)NC(=O)[C@H](Cc1ccccc1)CS(=O)(=O)N1CCN(C)CC1 (stereo partly drawn) [Example 191, (2S) 2-Benzyl-3-(1-methyl-piperazin-4-ylsulfonyl)propionylalanine Amide of (1R,2S,2'S,3'S)-2-Amino-3-cyclohexyl-1-[3'-(ethyl)oxetan-2'-yl]-1-(hydroxy)propane]  9.24
4. CCCC[C@H](NC(=O)[C@H](Cc1ccccc1)Cn1ccnc1)C(=O)N[C@@H](CC1CCCCC1)[C@@H](O)[C@H]1OC[C@@H]1CC [Example 189, (2R)-2-Benzyl-3-(imidazol-1-yl)propionyl-(nor)Leucine Amide of (1R,2S,2'S,3'S)-2-Amino-3-cyclohexyl-1-[3'-(ethyl)oxetan-2'-yl]-1-(hydroxy)propane]  9.34
